Entries after “also recorded” stand apart in the source; their conditions may differ. Read-outs that look alike come from different tables or passages of the source. Marks after values point to notes of the source that are not given here. Positions of bridges follow the written chain, without caps; N, C: chain ends. Residues, ends and D or L forms follow the SMILES beside them.
What was measured:
M. tuberculosis H37Rv [1] = assay: Murine TB model, lung histology and immunohistochemistry; parameters: species or system BALB/c mice; details: mouse, in vivo
M. tuberculosis H37Rv [2] = type: in vivo, BALB/c mice; details: 0.83 mg
[3] = tested on: primary human macrophages; assay: Cytotoxicity, PrestoBlue (reducing metabolites); type: cell-based; details: 100 μM, 24 hours
Experimental: (§1) Human venous blood mononuclear cells were obtained from healthy volunteers using a Lymphoprep density gradient (Axis-Shield, Oslo, Norway) according to the manufacturers instructions. To obtain pure monocytes, the cell suspension was applied to CD14 micro beads (MACS), washed and passed through magnetic column according to manufacturers description. The monocytes were counted (Sysmex), diluted in RPMI medium containing GM-CSF (50 ng/mL) and seeded in 96-well plates (10^5/well) for a week to differentiate into macrophages.
(§2) The variant antimicrobial peptide of SEQ ID NO: 3 cytotoxicity was further examined by PrestoBlue® and ATPlite™ assays. Primary macrophages were treated with 100 μM variant antimicrobial peptide of SEQ ID NO: 3 or 50 μM Staurosporine (S-4400, Sigma) for 24 hours. Cell viability was assessed with PrestoBlue® fluorescence (A13261, Thermo Scientific) and cellular ATP levels using ATPlite™ kit (#6016943, Perkin Elmer) compared to untreated control, according to the manufacturers' instructions.

human α-thrombin = target: T1, human α-thrombin (Homo sapiens, UniProt P00734); assay: Protease sensitivity assay, α-thrombin; type: in vitro ADME; details: 37° C., 6 h
T1 construct: human α-thrombin (0.4 μg Innovative Research); purchased Innovative Research
Experimental: (§3) The variant antimicrobial peptide of SEQ ID NO: 3 (1 μg) was incubated at 37° C. with human neutrophil elastase (HNE, 0.4 μg, 29 units/mg; Calbiochem (La Jolla, Calif.), Cathepsin G (0.4 μg, EMD Millipore) and human α-thrombin (0.4 μg Innovative Research) in a total volume of 20 μL for 6 h. Furthermore 2 μg of the variant antimicrobial peptide of SEQ ID NO: 3 was incubated with 0.4 μg of HNE for kinetic study of peptide degradations. The materials were analyzed on 10-20% precast SDS-PAGE Tris-Tricine gels (Life Technologies) and analyzed after staining with Coomassie Blue R-250. […]

[4] = tested on: primary human macrophages; assay: Cytotoxicity, ATPlite (cellular ATP levels); type: cell-based; details: 100 μM, 24 hours
Experimental: as §1, §2

Cathepsin G = target: T2, Cathepsin G (Homo sapiens, UniProt P08311); assay: Protease sensitivity assay, Cathepsin G; type: in vitro ADME; details: 37° C., 6 h
T2 construct: purchased EMD Millipore
T2 sequence (P08311 21-244): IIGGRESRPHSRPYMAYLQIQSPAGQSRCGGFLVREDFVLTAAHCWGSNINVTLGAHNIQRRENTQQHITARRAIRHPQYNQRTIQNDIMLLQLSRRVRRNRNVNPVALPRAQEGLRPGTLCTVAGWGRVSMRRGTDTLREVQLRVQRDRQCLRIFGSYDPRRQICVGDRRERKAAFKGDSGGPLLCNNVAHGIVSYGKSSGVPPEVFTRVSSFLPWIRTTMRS
Experimental: as §3

[5] = tested on: primary human macrophages; assay: Cytotoxicity, MTT assay; type: cell-based; details: for macrophage viability (MTT): 6.3 μM peptide concentration; for toxicity to human cells / macrophages (in words): primary human macrophages
Experimental: as §1
(§4) Primary macrophages were prepared from whole blood (see above). The medium was replaced with fresh medium containing 0, 6.3, 12.5, 25 or 100 μM peptides and incubated for 0, 1, 4 and 24 h in 5% CO2 atmosphere. For cytotoxicity measurement, 10 μl 3-(4,5-dimethylthiazol-2-yl)-2,5 diphenyltetrazolium bromide (MTT) solution (Sigma) was added to each well according to manufacturers instructions, and analyzed in a spectrophotometer at 580 nm.

Cytotoxicity, MTT assay = type: cell-based, human; details: human, primary human monocyte-derived macrophages; 6.3 μM peptide concentration; read-out: macrophage viability (MTT)
Experimental: as §1, §4

[6] = tested on: M. tuberculosis H37Rv and TB2016/268; type: cell-based, Mycobacterium tuberculosis; details: gold-labelled peptide, 6.3 μM
[7] = tested on: M. tuberculosis H37Rv and clinical isolate TB2016/268; type: cell-based, Mycobacterium tuberculosis
[8] = target: T3, human neutrophil elastase (HNE) (Homo sapiens, UniProt P08246); assay: Protease sensitivity assay, HNE; type: in vitro ADME; details: isolated human neutrophil elastase (HNE), after 22 hours, 37° C., read-out: peptide breakdown by HNE
T3 construct: purchased Calbiochem (La Jolla, Calif.)
T3 sequence (P08246 30-267): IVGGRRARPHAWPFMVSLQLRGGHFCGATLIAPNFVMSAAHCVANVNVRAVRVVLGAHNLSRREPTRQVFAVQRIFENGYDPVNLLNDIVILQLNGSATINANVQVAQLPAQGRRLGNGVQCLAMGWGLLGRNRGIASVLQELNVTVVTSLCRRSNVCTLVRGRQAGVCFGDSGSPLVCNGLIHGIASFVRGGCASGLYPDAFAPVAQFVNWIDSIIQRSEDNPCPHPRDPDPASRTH
Experimental: as §3

M. tuberculosis = details: Table 1; from Schon et al. 2009; cited from earlier work

SMILES	lung tissue damage, inflammation, bacterial and neutrophil counts (IHC, H&E) (M. tuberculosis H37Rv [1])	lung CFU reduction vs control animals (M. tuberculosis H37Rv [2]; five days of daily intra-tracheal treatment)	lung CFU reduction vs control animals (M. tuberculosis H37Rv [2]; three days of daily intra-tracheal treatment)	toxicity, reducing metabolites (PrestoBlue) [3]	peptide degradation by human α-thrombin (human α-thrombin)	toxicity, cellular ATP levels (ATPlite) [4]	peptide degradation by Cathepsin G (Cathepsin G)	macrophage viability (MTT) [5]	toxicity to human cells / macrophages (in words) [5]	viability at 6.3 µM (Cytotoxicity, MTT assay)	association of peptide with the mycobacterial membrane (TEM) [6]	Mycobacterial killing efficiency [7]	metabolised at 22 h [8]	MIC (mg/L) (M. tuberculosis)	MIC (μM) (M. tuberculosis)
CC[C@H](C)[C@@H]1NC(=O)[C@H](CO)NC(=O)[C@H](CCCCN)NC(=O)[C@@H]2CSSC[C@@H](C(=O)N[C@@H](Cc3ccc(O)cc3)C(=O)O)NC(=O)[C@H](CCCCN)NC(=O)[C@@H]3CSSC[C@H](NC(=O)[C@H](CCC(N)=O)NC(=O)[C@H]([C@@H](C)CC)NC(=O)[C@H](CC(=O)O)NC(=O)[C@H](CC(=O)O)NC(=O)[C@H](CCC(=O)O)NC(=O)[C@H](CO)NC(=O)[C@H](Cc4c[nH]c5ccccc45)NC(=O)[C@@H]4CCCN4C(=O)CNC(=O)[C@H](CC(N)=O)NC(=O)[C@@H](NC(=O)CNC(=O)[C@H](Cc4ccccc4)NC(=O)CN)CSSC[C@H](NC(=O)[C@H](Cc4ccc(O)cc4)NC(=O)CNC(=O)CNC(=O)[C@H](CCCCN)NC(=O)[C@H](Cc4ccc(O)cc4)NC(=O)CNC(=O)[C@H](CCCCN)NC1=O)C(=O)N[C@@H](C)C(=O)N[C@@H](CCCNC(=N)N)C(=O)NCC(=O)NCC(=O)N[C@@H](Cc1ccccc1)C(=O)N[C@@H](C(C)C)C(=O)N3)C(=O)N[C@@H](Cc1c[nH]cn1)C(=O)N[C@@H](CC(N)=O)C(=O)N[C@@H](Cc1c[nH]cn1)C(=O)N2 [SEQ ID NO: 3] (H-GFGCNGPWSEDDIQCHNHCKSIKGYKGGYCARGGFVCKCY-OH; disulfide 4-30, 15-37, 19-39 (inferred); N-terminus and C-terminus assumed)	less tissue damage, lower bacterial and neutrophil counts than infected controls; also recorded: low counts of both neutrophils and bacteria in the lungs	86%	46%	did not show any toxicity	only HNE showed peptide degradation	did not show any toxicity	only HNE showed peptide degradation	87.5%	not Toxic to Human Cells	87.5%	associated with the mycobacterial envelope within one hour of exposure and disrupted bacterial membranes; also recorded: associated with the mycobacterial membrane	73.8%	~50%		
CC[C@@H](CO)NCCN[C@@H](CC)CO [Ethambutol]														5.0* mg/L	24.5* μM
CC[C@H](C)[C@@H]1NC(=O)[C@H](C)NC(=O)[C@@H]2CSSC[C@H](NC(=O)CNC(=O)[C@H](Cc3ccccc3)NC(=O)CN)C(=O)N[C@@H](CC(N)=O)C(=O)NCC(=O)N3CCC[C@H]3C(=O)N[C@@H](Cc3c[nH]c4ccccc34)C(=O)N[C@@H](CO)C(=O)N[C@@H](CCC(=O)O)C(=O)N[C@@H](CC(=O)O)C(=O)N[C@@H](CC(=O)O)C(=O)N[C@@H]([C@@H](C)CC)C(=O)N[C@@H](CCC(N)=O)C(=O)N[C@H]3CSSC[C@H](NC(=O)[C@H](C(C)C)NC(=O)[C@H](Cc4ccccc4)NC(=O)CNC(=O)CNC1=O)C(=O)N[C@@H](CCCCN)C(=O)N[C@H](C(=O)N[C@@H](Cc1ccc(O)cc1)C(=O)O)CSSC[C@H](NC(=O)[C@H](Cc1c[nH]cn1)NC(=O)[C@H](CC(N)=O)NC(=O)[C@H](Cc1c[nH]cn1)NC3=O)C(=O)N[C@@H](CCCCN)C(=O)N[C@@H](CO)C(=O)N[C@@H]([C@@H](C)CC)C(=O)N[C@@H](CCCCN)C(=O)NCC(=O)N[C@@H](Cc1ccc(O)cc1)C(=O)N[C@@H](CCCCN)C(=O)NCC(=O)NCC(=O)N[C@@H](Cc1ccc(O)cc1)C(=O)N2 [SEQ ID NO: 4] (H-GFGCNGPWSEDDIQCHNHCKSIKGYKGGYCAIGGFVCKCY-OH; disulfide 4-30, 15-37, 19-39 (inferred); N-terminus and C-terminus assumed)								86.3%	not Toxic to Human Cells	86.3%		74.8%			
NNC(=O)c1ccncc1 [Isoniazid]														0.2* mg/L	1.5* μM

Reference: US11034742B2, “Peptides with antibiotic potential against Mycobacterium tuberculosis” (LINNANE PHARMA AB, priority 2017, dated 2021)
